According to PubChem BioAssay (NCI):
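Exposure lasted 48 hours, with cells grown in 96-well plates and compounds tested at five concentrations. GI50 is the concentration that inhibits growth by half. Definition used: TGI = concentration required for complete inhibition of growth.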

Key:
Test in all cases: growth of human tumour cells (NCI), 48 h
[1] = tested on: HCC-2998 colon
[2] = tested on: OVCAR-3 ovarian
[3] = tested on: KM12 colon
[4] = tested on: A498 renal
[5] = tested on: RPMI-8226 leukemia
[6] = tested on: MDA-MB-231 breast
[7] = tested on: OVCAR-5 ovarian
[8] = tested on: HOP-62 NSCLC
[9] = tested on: NCI-H460 lung
[10] = tested on: UACC-257 melanoma
[11] = tested on: 786-0 renal
[12] = tested on: COLO 205 colon
[13] = tested on: HCT-116 colon
[14] = tested on: NCI/ADR-RES ovarian
[15] = tested on: SW-620 colon
[16] = tested on: M14 melanoma
[17] = tested on: A549 NSCLC
[18] = tested on: K-562 leukemia
[19] = tested on: MALME-3M melanoma
[20] = tested on: DU-145 prostate
[21] = tested on: SNB-75 CNS
[22] = tested on: HL-60(TB) leukemia
[23] = tested on: SK-MEL-2 melanoma
[24] = tested on: CCRF-CEM leukemia
[25] = tested on: OVCAR-4 ovarian
[26] = tested on: SN12C renal
[27] = tested on: RXF 393 renal
[28] = tested on: UO-31 renal
[29] = tested on: OVCAR-8 ovarian
[30] = tested on: MCF7 breast
[31] = tested on: SK-MEL-28 melanoma
[32] = tested on: MDA-MB-435
[33] = tested on: ACHN renal
[34] = tested on: PC-3 prostate
[35] = tested on: U251 CNS
[36] = tested on: SK-OV-3 ovarian
[37] = tested on: NCI-H522 lung
[38] = tested on: SR leukemia
[39] = tested on: SF-295 CNS
[40] = tested on: CAKI-1 renal
[41] = tested on: SNB-19 CNS
[42] = tested on: HT29 colon
[43] = tested on: SF-539 CNS
[44] = tested on: HS 578T breast
[45] = tested on: T-47D breast
[46] = tested on: MOLT-4 leukemia
[47] = tested on: NCI-H23 lung
[48] = tested on: HOP-92 NSCLC
[49] = tested on: SK-MEL-5 melanoma
[50] = tested on: UACC-62 melanoma
[51] = tested on: HCT-15 colon
[52] = tested on: TK-10 renal
[53] = tested on: BT-549 breast
[54] = tested on: NCI-H226 lung
[55] = tested on: LOX IMVI melanoma
[56] = tested on: IGROV1 ovarian
[57] = tested on: SF-268 CNS

COc1c(C)cnc(Cn2cnc3c(Cl)nc(N)nc32)c1C
GI50 [1]: 457 nM | TGI [1]: 10.7 µM | GI50 [2]: 658 nM | TGI [2]: > 100 µM | GI50 [3]: 85.4 nM | GI50 [4]: 679 nM | TGI [4]: 23.4 µM | GI50 [5]: 333 nM | TGI [5]: > 100 µM | GI50 [6]: 559 nM | TGI [6]: > 72.9 µM | GI50 [7]: 1130 nM | TGI [7]: > 100 µM | GI50 [8]: 405 nM | TGI [8]: > 100 µM | GI50 [9]: 97.4 nM | TGI [9]: > 100 µM | GI50 [10]: 297 nM | TGI [10]: 9.57 µM | GI50 [11]: 937 nM | TGI [11]: > 100 µM | GI50 [12]: 218 nM | GI50 [13]: 120 nM | TGI [13]: > 100 µM | GI50 [14]: 509 nM | TGI [14]: > 100 µM | GI50 [15]: 113 nM | TGI [15]: > 100 µM | GI50 [16]: 478 nM | TGI [16]: > 100 µM | GI50 [17]: 179 nM | TGI [17]: > 100 µM | GI50 [18]: 187 nM | TGI [18]: > 100 µM | GI50 [19]: 380 nM | TGI [19]: 58.3 µM | GI50 [20]: 70.1 nM | TGI [20]: > 100 µM | GI50 [21]: 3.13 µM | TGI [21]: > 100 µM | GI50 [22]: 245 nM | GI50 [23]: 434 nM | TGI [23]: > 59.5 µM | GI50 [24]: 97 nM | TGI [24]: > 100 µM | GI50 [25]: 7.17 µM | TGI [25]: > 100 µM | GI50 [26]: 336 nM | TGI [26]: > 100 µM | GI50 [27]: 799 nM | TGI [27]: > 100 µM | GI50 [28]: 141 nM | TGI [28]: > 47.4 µM | GI50 [29]: 323 nM | TGI [29]: > 100 µM | GI50 [30]: 40.2 nM | TGI [30]: > 100 µM | GI50 [31]: 546 nM | TGI [31]: > 83.4 µM | GI50 [32]: 179 nM | TGI [32]: 40.1 µM | GI50 [33]: 289 nM | TGI [33]: > 100 µM | GI50 [34]: 359 nM | TGI [34]: > 100 µM | GI50 [35]: 415 nM | TGI [35]: > 100 µM | GI50 [36]: 230 nM | TGI [36]: > 70.6 µM | GI50 [37]: 261 nM | TGI [37]: 12.9 µM | GI50 [38]: 117 nM | TGI [38]: > 100 µM | GI50 [39]: 94.8 nM | GI50 [40]: 397 nM | TGI [40]: > 100 µM | GI50 [41]: 480 nM | TGI [41]: > 100 µM | GI50 [42]: 65.4 nM | TGI [42]: > 100 µM | GI50 [43]: 605 nM | TGI [43]: > 100 µM | GI50 [44]: 3.53 µM | TGI [44]: > 100 µM | GI50 [45]: 110 nM | TGI [45]: > 100 µM | GI50 [46]: 281 nM | TGI [46]: > 100 µM | GI50 [47]: 262 nM | TGI [47]: 19.8 µM | GI50 [48]: 467 nM | TGI [48]: 2800 nM | GI50 [49]: 557 nM | TGI [49]: 15.9 µM | GI50 [50]: 301 nM | TGI [50]: 6.95 µM | GI50 [51]: 107 nM | TGI [51]: 26.7 µM | GI50 [52]: 88.4 nM | TGI [52]: > 100 µM | GI50 [53]: 1430 nM | TGI [53]: > 100 µM | GI50 [54]: 594 nM | TGI [54]: > 100 µM | GI50 [55]: 290 nM | TGI [55]: 4.05 µM | GI50 [56]: 455 nM | TGI [56]: > 100 µM | GI50 [57]: 708 nM | TGI [57]: > 100 µM
